Values after ≈ are worked out from the molar mass of the structure shown. One block for each molecule: values may come before it.
How the values were obtained:
[1] = Cytotoxicity against human HeLa cells incubated for 24 hrs by PrestoBlue reagent based assay; type: toxicity, cell-based
[2] = Inhibition of bacterial Metallo-beta-lactamase GIM-1 using nitrocefin as substrate; parameters: species or system Bacteria
[3] = molecular target: Beta-lactamase VIM-1 (Bacteria, UniProt Q8GDC1); assay: Inhibition of bacterial Metallo-beta-lactamase VIM-1 (unknown origin)
[4] = Inhibition of bacterial Metallo-beta-lactamase VIM-4 (unknown origin); parameters: species or system Bacteria
[5] = Binding affinity to bacterial Metallo-beta-lactamase VIM-2 (unknown origin) assessed as inhibition constant; parameters: species or system Bacteria
[6] = Inhibition of bacterial Metallo-beta-lactamase VIM-2 (unknown origin); parameters: species or system Bacteria
[7] = test system: Enterobacter sp.; assay: Antibacterial activity against IMP-type producing Enterobacter sp. 42713 clinical isolate in presence of imipenem; type: functional
[8] = molecular target: T1, Metallo-beta-lactamase type 2 (Bacteria, UniProt C7C422); assay: Binding affinity to bacterial NDM-1 (unknown origin) assessed as inhibition constant; conditions: read-out: Ki
T1 sequence (C7C422 whole entry): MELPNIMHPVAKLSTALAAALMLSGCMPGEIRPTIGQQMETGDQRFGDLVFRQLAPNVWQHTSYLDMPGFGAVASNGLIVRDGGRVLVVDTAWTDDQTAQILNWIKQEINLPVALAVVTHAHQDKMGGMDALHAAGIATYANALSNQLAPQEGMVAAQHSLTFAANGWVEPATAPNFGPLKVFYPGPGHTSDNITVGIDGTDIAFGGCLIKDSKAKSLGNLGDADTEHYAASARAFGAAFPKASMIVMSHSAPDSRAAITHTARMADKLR

[9] = molecular target: Beta-lactamase NDM-1 (Escherichia coli, UniProt E5KIY2); assay: Inhibition of NDM-1 in Escherichia coli assessed as reduction in imipenem hydrolytic activity
Beta-lactamase NDM-1, sequence (E5KIY2 whole entry): as the sequence (C7C422 whole entry) above

[10] = molecular target: Metallo-beta-lactamase VIM-2 (Pseudomonas aeruginosa, UniProt D1MEN9); assay: Binding affinity to Metallo-beta-lactamase VIM-2 assessed as inhibition constant
[11] = Cytotoxicity against mouse L929 cells assessed as cell viability >533 uM relative to control; type: toxicity, cell-based; conditions: read-out: Activity
[12] = Cytotoxicity against human HEK293 cells assessed as cell viability >533 uM relative to control; type: toxicity, cell-based; conditions: read-out: Activity
[13] = test system: Proteus mirabilis; assay: Antibacterial activity against IMP-type producing Proteus mirabilis UNC KPC 170 clinical isolate in presence of imipenem; type: functional
[14] = test system: Klebsiella pneumoniae; assay: Antibacterial activity against IMP-type producing Klebsiella pneumoniae LC 82 clinical isolate in presence of imipenem; type: functional
[15] = Binding affinity to bacterial Metallo-beta-lactamase IMP-1 (unknown origin) assessed as inhibition constant; parameters: species or system Bacteria
[16] = molecular target: T1, Metallo-beta-lactamase type 2; assay: Binding affinity to wildtype bacterial NDM-1 (unknown origin) expressed in Escherichia coli BL21(DE3) cells assessed as dissociation constant
[17] = test system: Enterobacteriaceae; assay: Antibacterial activity against NDM-1-producing Enterobacteriaceae; type: functional
[18] = molecular target: T1, Metallo-beta-lactamase type 2; assay: Inhibition of wildtype bacterial NDM-1 (unknown origin) expressed in Escherichia coli BL21(DE3) cells using nitrocefin as substrate incubated for 20 mins by absorbance based assay
[19] = test system: Escherichia coli; assay: Antibacterial activity against NDM-1-producing Escherichia coli in presence of meropenem; type: functional
[20] = test system: Escherichia coli; assay: Synergistic activity against NDM-1-producing engineered Escherichia coli assessed as fractional inhibition concentration index in presence of meropenem; type: functional
[21] = test system: Vero C1008; assay: Cytotoxicity against African green monkey Vero E6 cells at 40 ug/ml relative to control; type: toxicity, cell-based; conditions: chlorocebus sabaeus, at 40 µg/mL
[22] = test system: Escherichia coli; assay: Synergistic activity against multiple NDM-1-producing engineered Escherichia coli clinical isolate assessed as fractional inhibition concentration index in presence of meropenem; type: functional
[23] = molecular target: T1, Metallo-beta-lactamase type 2; assay: Inhibition of bacterial NDM-1 (unknown origin)
[24] = test system: L929; assay: Cytotoxicity against mouse L929 cells at 40 ug/ml relative to control; type: toxicity, cell-based; conditions: at 40 µg/mL
[25] = test system: MCF7; assay: Cytotoxicity against human MCF7 cells at 12.5 uM relative to control; type: toxicity, cell-based; conditions: mcf7, 12.5 µM
[26] = molecular target: T1, Metallo-beta-lactamase type 2; assay: Inhibition of bacterial NDM-1 (unknown origin) using imipenem as substrate
[27] = molecular target: T1, Metallo-beta-lactamase type 2; assay: Binding affinity to bacterial NDM-1 (unknown origin) using nitrocefin as substrate assessed as inhibition constant
[28] = test system: Enterobacteriaceae; assay: Synergistic antibacterial activity against NDM-1-producing Carbapenem-resistant Enterobacteriaceae assessed as fractional inhibitory concentration index in presence of meropenem; type: functional
[29] = Cytotoxicity against human HEK293 cells incubated for 24 hrs by MTT assay; type: toxicity, cell-based
[30] = molecular target: T1, Metallo-beta-lactamase type 2; assay: Inhibition of bacterial NDM-1 (unknown origin) using nitrocefin as substrate
[31] = test system: L929; assay: Cytotoxicity against mouse L929 cells at 50 uM incubated for 48 hrs by CCK8 assay relative to control; type: toxicity, cell-based; conditions: l929, 48 h
[32] = molecular target: T1, Metallo-beta-lactamase type 2; assay: Inhibition of bacterial NDM-1 (unknown origin) using imipenem as substrate by Agilent UV8453 Spectrometric analysis
[33] = Acute toxicity in ip dosed CD1 mouse assessed as lethal dose measured for 7 days; type: organism-based; conditions: in vivo, time 7 day
[34] = Binding affinity to bacterial Metallo-beta-lactamase VIM-2 (unknown origin) expressed in Escherichia coli BL21(DE3) cells assessed as inhibition constant; parameters: species or system Bacteria
[35] = test system: Escherichia coli; assay: Synergistic activity against VIM-2-producing Escherichia coli assessed as fractional inhibition concentration index in presence of ceftazidime by checkerboard assay; type: functional
[36] = test system: HeLa; assay: Cytotoxicity against human HeLa cells at >1000 uM incubated for 24 hrs by Celltiter assay relative to control; type: toxicity, cell-based
[37] = molecular target: Angiotensin-converting enzyme (Homo sapiens, UniProt P12821); assay: Inhibition of angiotensin-converting enzyme (unknown origin)
Angiotensin-converting enzyme, sequence (P12821 whole entry): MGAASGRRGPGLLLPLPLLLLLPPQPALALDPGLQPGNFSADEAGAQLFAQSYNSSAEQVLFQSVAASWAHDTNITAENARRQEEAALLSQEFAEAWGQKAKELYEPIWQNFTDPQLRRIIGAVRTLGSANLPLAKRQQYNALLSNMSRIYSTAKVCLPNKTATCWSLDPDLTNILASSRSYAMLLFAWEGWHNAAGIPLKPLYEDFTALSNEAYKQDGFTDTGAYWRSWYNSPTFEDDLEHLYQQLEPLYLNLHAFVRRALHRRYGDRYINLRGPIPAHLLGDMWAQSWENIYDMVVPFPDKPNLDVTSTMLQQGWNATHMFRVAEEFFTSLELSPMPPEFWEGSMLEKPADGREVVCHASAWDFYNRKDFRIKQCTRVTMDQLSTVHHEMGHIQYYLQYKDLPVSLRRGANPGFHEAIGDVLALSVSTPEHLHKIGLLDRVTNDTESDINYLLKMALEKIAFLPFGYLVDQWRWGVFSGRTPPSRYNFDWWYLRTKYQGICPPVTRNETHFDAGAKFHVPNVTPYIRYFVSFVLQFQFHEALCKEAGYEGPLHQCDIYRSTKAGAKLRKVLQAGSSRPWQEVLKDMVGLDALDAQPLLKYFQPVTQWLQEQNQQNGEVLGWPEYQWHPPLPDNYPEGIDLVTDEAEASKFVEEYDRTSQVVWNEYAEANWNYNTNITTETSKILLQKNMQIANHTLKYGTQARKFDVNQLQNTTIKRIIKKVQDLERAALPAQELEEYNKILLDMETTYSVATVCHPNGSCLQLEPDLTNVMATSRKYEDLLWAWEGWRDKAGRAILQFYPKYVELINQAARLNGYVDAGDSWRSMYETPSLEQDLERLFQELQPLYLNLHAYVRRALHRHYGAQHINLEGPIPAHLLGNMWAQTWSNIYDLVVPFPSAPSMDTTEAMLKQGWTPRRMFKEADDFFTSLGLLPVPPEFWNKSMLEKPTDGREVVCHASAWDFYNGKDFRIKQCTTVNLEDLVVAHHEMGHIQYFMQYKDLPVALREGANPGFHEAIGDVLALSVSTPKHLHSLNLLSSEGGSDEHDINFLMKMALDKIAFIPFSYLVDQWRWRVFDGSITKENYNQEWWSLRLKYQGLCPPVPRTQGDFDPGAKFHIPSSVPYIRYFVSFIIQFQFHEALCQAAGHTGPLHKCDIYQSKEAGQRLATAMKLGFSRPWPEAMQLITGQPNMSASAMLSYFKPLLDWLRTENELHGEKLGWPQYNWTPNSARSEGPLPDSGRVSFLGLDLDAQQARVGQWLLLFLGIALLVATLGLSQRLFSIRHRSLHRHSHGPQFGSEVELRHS

[38] = test system: Escherichia coli; assay: Synergistic activity against IMP-1 producing Escherichia coli NUBL-24 infected in CD1 mouse assessed as death rescue at 100 mg/kg, ip measured for 7 days in presence of meropenem relative to control; type: functional; conditions: time 7 day
[39] = test system: Escherichia coli; assay: Synergistic activity against IMP-1 producing engineered Escherichia coli NUBL-24 assessed as fractional inhibition concentration index incubated for 16 to 20 hrs in presence of meropenem by CLSI-based microdilution method; type: functional; conditions: time 16-20 hrs
[40] = Acute toxicity in iv dosed CD1 mouse assessed as lethal dose measured for 7 days; type: organism-based; conditions: in vivo, time 7 day
[41] = Binding affinity to bacterial Metallo-beta-lactamase IMP-1 (unknown origin) expressed in Escherichia coli BL21(DE3) cells assessed as inhibition constant; parameters: species or system Bacteria
[42] = test system: Klebsiella pneumoniae; assay: Synergistic activity against NDM-1/VIM-1-producing Klebsiella pneumoniae MS5674 assessed as fractional inhibition concentration index in presence of meropenem by checkerboard assay; type: functional
[43] = test system: Acinetobacter baumannii; assay: Antibacterial activity against MBL-producing Acinetobacter baumannii assessed as diameter of inhibition zone in presence of imipenem; type: functional
[44] = Inhibition of Acinetobacter baumannii Metallo-beta-lactamase IMP-1

Compound: COP(=O)(CCSC(C)=O)N(C)Cc1ccccn1 (racemic)
IC50 at 24 h [1]: > 500 µM | IC50 [2]: 109 µM

IC50 [3]: 1.61 µM | IC50 [4]: 2.1 µM | Ki [5]: 0.038 µM | IC50 [6]: 0.08 µM
Compound: O=C(O)c1ccccc1CCn1c(-c2cccc(-c3ccccc3)c2)n[nH]c1=S

Compound: CCOC(=O)[C@]1(CS)N[C@@H](C(=O)O)C(C)(C)S1
MIC [7]: 8 µg/mL | Ki [8]: 0.6 µM | IC50 [9]: 10 µM | Ki [10]: 1.9 µM | viability [11]: 85% | viability at 533 µM [12]: 85% | MIC [13]: 8 µg/mL | MIC [14]: 0.5 µg/mL | Ki [15]: 2 µM

Kd [16]: 11.8 µM | MIC50 [17]: 32 µM (≈ 15.1 µg/mL) | IC50 [18]: 12.1 µM
Compound: CC1=C[C@@]2(C)[C@@H](/C(C)=C/[C@]3(C)O[C@H](C)[C@@]4(C)O[C@H]43)[C@](C)([C@@H](O)[C@@H](C)C(=O)C(C)C)[C@H]2[C@]2(C)O[C@H]12

Compound: CC(C)c1cc2c(c(O)c1O)[C@@]1(C(=O)O)CCCC(C)(C)[C@@H]1CC2 [CARNOSIC ACID]
MIC [19]: 4 µg/mL

IC50 [23]: 0.096 µM
Compound: CO[C@H]1C(=O)N2C(C(=O)O)=C(CSc3nc4ccccc4s3)CS[C@H]12
fractional inhibitory concentration index (FICI) [20]: 0.02 | Activity [21]: > 60% | fractional inhibitory concentration index (FICI) [22]: 0.031 | Activity [24]: > 60%

Ki [8]: 5.9 µM | IC50 [26]: 0.02 µM
Compound: O=S(=O)(Nc1cccc2cccnc12)c1ccc(Cl)cc1
Activity [25]: < 60%

Compound: COC(=O)[C@H]1CN(C(=O)CN(Cc2ccccn2)Cc2ccccn2)C[C@@H]1c1ccc(OCc2ccccc2)c(OC)c1 (racemic)
Ki [27]: 4.6 µM | fractional inhibitory concentration index (FICI) [28]: 0.01 | IC50 at 24 h [29]: > 128 µM | IC50 [30]: 51 µM

IC50 [32]: 0.038 µM
Compound: S=C(N/N=C/c1ccccn1)Nc1ccc(Cl)cc1
Activity [31]: > 60%

Compound: Cc1oc(C)c(S(N)(=O)=O)c1C(=O)O
LD50 at 168 h [33]: > 1000 mg/kg | Ki [34]: 2.81 µM | fractional inhibitory concentration index (FICI) [35]: 0.31 | Activity [36]: > 50% | IC50 [37]: > 1000 µM | Activity [38]: 90% | fractional inhibitory concentration index (FICI) [39]: 0.11 | LD50 at 168 h [40]: 246 mg/kg | Ki [41]: 0.22 µM | fractional inhibitory concentration index (FICI) [42]: 0.19

IC50 [44]: 83.7 µM
Compound: Oc1ccc(Br)cc1/C=N/c1cccnc1/N=C/c1cc(Br)ccc1O
diameter of the inhibition zone (DIZ) [43]: 25 mm

From ChEMBL document CHEMBL5356930, “Small-molecule inhibitors of bacterial-producing metallo-β-lactamases: insights into their resistance mechanisms and biochemical analyses of their activities” (RSC Med Chem, 2023)
